Like-named read-outs stand apart in the source and are kept apart here.

Data set [1] in a line: Pharmacokinetics of PEGylated protease inhibitor prodrugs in rats. Particulars: prodrug in plasma. The format is in vivo, male Sprague-Dawley rats. On the set-up: AUCall / AUC: concentration or dose not given beside the values. Here is the method: Pharmacokinetic analysis of protease inhibitors described herein was conducted. To evaluate the pharmacokinetics of PEGylated protease inhibitor conjugates with releasable lipophilic attachments, test compounds were administered to male Sprague-Dawley rats.
At various times following test article administration, serial blood samples were collected from indwelling jugular vein catheters and transferred to micro-tubes containing 7.5 μL of 20% w/v K2EDTA as an anticoagulant. Following processing of the blood samples to plasma (10 minutes at 10000 rpm, Centrifuge Model: Kubota 3500), plasma concentrations of the test article or corresponding PEGylated molecule released from the test article was measured using LC-MS/MS methods. Pharmacokinetic parameters were estimated using noncompartmental methods.
Table 3 presents a summary of pharmacokinetic parameters of PEGylated protease inhibitor prodrugs, wherein Cmax is the maximum (peak) concentration, AUCall represents the area under the concentration-time curve from zero to time of last concentration value, T½ is half life, and MRTlast is the mean residence time to last observable concentration

Data set [2] can be described thus: Pharmacokinetics of released PEGylated protease inhibitor following P.O. administration of prodrugs in rats. The format is in vivo, male Sprague-Dawley rats. On the set-up: AUCall Mean: concentration or dose not given beside the values; C24 Mean: unit not given here. The note with it: rats (n = 4-5); for C24 Mean: concentration at 24 hours. Summed up:
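Prodrugs given orally to male Sprague-Dawley rats, with serial blood via jugular catheter into K2EDTA. Plasma levels of test article or released PEGylated inhibitor measured by LC-MS/MS. PK parameters from noncompartmental analysis.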

[3] abbreviates: mPEG3-atazanavir in plasma after PO administration of mPEG3-ATV or of the listed prodrug.
Setting [4] is: mPEG5-atazanavir in plasma after PO administration of mPEG5-ATV or of the listed prodrug.
[5] abbreviates: mPEG6-atazanavir in plasma after PO administration of mPEG6-ATV or of the listed prodrug.

Turning to `CCOC(=O)OC(CN(Cc1ccc(-c2ccccn2)cc1)NC(=O)C(NC(=O)OC)C(C)(C)C)C(Cc1ccccc1)NC(=O)C(NC(=O)OCCOCCOCCOC)C(C)(C)C` (centres unmarked) [mPEG3-atazanavir ethyl carbonate, mPEG3-Atazanavir Ethyl Carbonate], in data set [1], the MRTlast stood at 3.12 ± 0.285 h and the “t½(z)” value came out at 6.56 ± 5.13 h. Further, the “Cmin(24 hr)” value in data set [1] (24 hr) was found to be 2.42 ± 1.20 ng/mL. In addition, in data set [1] (mean ± SD), the AUCall came to 4960 ± 442 ng·h/mL and the Cmax (as a rule, the highest concentration seen after dosing) was found to be 1190 ± 294 ng/mL. In addition, in data set [2] (setting [3]), the “C24 Mean” value stood at 1.42, the “AUCall Mean” value came out at 199 ng·h/mL, the “Cmax Mean” value worked out at 17.9 ng/mL and the “MRT last Mean” value turned out to be 15.5 h. The “Tmax* Median” value in data set [2] (setting [3]) turned out to be 1.00 h.
In the case of `COCCOCCOCCOCCOCCOC(=O)NC(C(=O)NC(Cc1ccccc1)C(CN(Cc1ccc(-c2ccccn2)cc1)NC(=O)C(NC(=O)OC)C(C)(C)C)OCOC)C(C)(C)C` (centres unmarked) [mPEG5-Atazanavir-methyl methyl ether, mPEG5-Atazanavir Methyl Methyl Ether], in data set [1], the MRTlast stood at 3.93 ± 1.41 h and the “t½(z)” value came out at 4.54 ± 1.68 h. Besides, the “Cmin(24 hr)” value in data set [1] (24 hr) amounted to 6.61 ± 8.39 ng/mL. Moreover, in data set [1] (mean ± SD), the AUCall stood at 3530 ± 1960 ng·h/mL and the Cmax was 773 ± 481 ng/mL. Moreover, in data set [2] (setting [4]), the “AUCall Mean” value turned out to be 137 ng·h/mL, the “Cmax Mean” value stood at 23.3 ng/mL, the “MRT last Mean” value was determined as 4.76 h and the “Tmax Median” value came to 2.00 h.
Take `COCCOCCOCCOCCOCCOC(=O)N[C@H](C(=O)N[C@@H](Cc1ccccc1)[C@H](CN(Cc1ccc(-c2ccccn2)cc1)NC(=O)[C@@H](NC(=O)OC)C(C)(C)C)OC(=O)[C@H](CC(C)C)NC(=O)[C@@H](N)CC(C)C)C(C)(C)C.Cl` [Leu-Leu-mPEG5-Atazanavir HCl, Leu-Leu-mPEG5-Atazanavir Hydrochloride]: in data set [1] (male, Sprague-Dawley, rat, in vivo), the MRT last (as a rule, a mean duration of stay, worked out from the concentration-time curve) came out at 3.59 ± 3.27 h. In addition, in data set [1] (male, Sprague-Dawley, rat, in vivo, 24 hr, read-out: Cmin(24 hr)), the concentration at 24 hr is 0.201 ± 0.401 ng/mL. In data set [1] (male, Sprague-Dawley, rat, in vivo, mean ± SD), the AUC – broadly, concentration integrated over time – worked out at 24.9 ± 6.24 ng·h/mL. Moreover, in data set [1] (male, Sprague-Dawley, rat, in vivo, mean ± SD, read-out: Cmax), the peak concentration (Cmax) came to 7.21 ± 0.417 ng/mL. In data set [1] (male, Sprague-Dawley, rat, in vivo, read-out: t½(z) (converted)), the half-life was 3.6 ± 2.59 h. Moreover, in data set [2] (setting [4]), the “C24 Mean” value is recorded as 2.98, the “AUCall Mean” value came out at 118 ng·h/mL, the “Cmax Mean” value is recorded as 14.1 ng/mL and the “MRT last Mean” value is 10.7 h. In data set [2] (setting [4]), the “Tmax Median” value was 0.750 h.
`COCCOCCOCCOCCOCCOC(=O)N[C@H](C(=O)N[C@@H](Cc1ccccc1)[C@H](CN(Cc1ccc(-c2ccccn2)cc1)NC(=O)[C@@H](NC(=O)OC)C(C)(C)C)OC(=O)[C@H](Cc1ccccc1)NC(=O)[C@@H](N)Cc1ccccc1)C(C)(C)C.Cl` [Phe-Phe-mPEG5-Atazanavir HCl, Phe-Phe-mPEG5-atazanavir hydrochloride]: in data set [1], the MRTlast was 1.49 ± 0.412 h and the “t½(z)” value came out at 2.01 h. Moreover, in data set [1] (mean ± SD), the AUCall came out at 31.8 ± 13.7 ng·h/mL and the Cmax is on record as 17.9 ± 9.09 ng/mL. In data set [2] (setting [4]), the “AUCall Mean” value stood at 94.3 ng·h/mL, the “Cmax Mean” value turned out to be 12.9 ng/mL, the “MRT last Mean” value came to 9.22 h and the “Tmax Median” value is 0.750 h.
For the molecule Phe-Gly-mPEG3-Atazanavir Hydrochloride, in data set [1], the MRTlast was determined as 0.602 ± 0.164 h and the “t½(z)” value was determined as 1.24 ± 0.237 h. Further, in data set [1] (mean ± SD), the AUCall is 6.07 ± 3.82 ng·h/mL and the Cmax is recorded as 7.38 ± 6.67 ng/mL. Further, in data set [2] (setting [3]), the “AUCall Mean” value turned out to be 69.6 ng·h/mL, the “Cmax Mean” value turned out to be 5.02 ng/mL, the “MRT last Mean” value was determined as 12.6 h and the “Tmax* Median” value worked out at 1.00 h.
As to `COCCOCCOCCOC(=O)NC(C(=O)NC(Cc1ccccc1)C(CN(Cc1ccc(-c2ccccn2)cc1)NC(=O)C(NC(=O)OC)C(C)(C)C)OC(=O)COCCOC(=O)C(N)CC(C)C)C(C)(C)C.Cl` (centres unmarked) [mPEG3-Atazanavir-CME-Leucine HCl, mPEG3-Atazanavir-CME-Leucine], the MRTlast in data set [1] turned out to be 3.74 ± 6.09 h. In data set [1] (mean ± SD), the AUCall was determined as 13.1 ± 17.2 ng·h/mL and the Cmax is on record as 11.5 ± 12.8 ng/mL. In data set [2] (setting [3]), the “AUCall Mean” value came to 85.9 ng·h/mL, the “Cmax Mean” value was 4.39 ng/mL, the “MRT last Mean” value came out at 17.4 h and the “Tmax* Median” value was 9.00 h.
For the molecule `COCCOCCOCCOC(=O)NC(C(=O)NC(Cc1ccccc1)C(CN(Cc1ccc(-c2ccccn2)cc1)NC(=O)C(NC(=O)OC)C(C)(C)C)OC(=O)CCCC(=O)OC1C(O)C(O)OC1C(O)CO)C(C)(C)C` (centres unmarked), in data set [1], the MRTlast came to 1.86 ± 1.49 h and the “t½(z)” value came out at 3.24 ± 3.26 h. Besides, in data set [1] (24 hr), the “Cmin(24 hr)” value came to 0.177 ± 0.353 ng/mL. Besides, in data set [1] (mean ± SD), the AUCall was found to be 221 ± 57.1 ng·h/mL and the highest concentration (Cmax) is listed as 167 ± 89.6 ng/mL. Moreover, in data set [2] (setting [3]), the “AUCall Mean” value is 84.4 ng·h/mL, the “Cmax Mean” value is 3.62 ng/mL, the “MRT last Mean” value came out at 22.5 h and the “Tmax* Median” value came out at 0.250 h.
Take `COCCOCCOCCOCCOCCOC(=O)NC(C(=O)NC(Cc1ccccc1)C(CN(Cc1ccc(-c2ccccn2)cc1)NC(=O)C(NC(=O)OC)C(C)(C)C)OC(=O)COCCOC(=O)C(N)Cc1ccccc1)C(C)(C)C.Cl` (centres unmarked) [mPEG5-Atazanavir-CME-phenylalanine HCl]: the MRTlast in data set [1] stood at 0.25 h. Also, in data set [1] (mean ± SD), the AUCall amounted to 0.0554 ± 0.096 ng·h/mL and the Cmax is recorded as 0.222 ± 0.384 ng/mL. Besides, in data set [2] (setting [4]), the “AUCall Mean” value was found to be 54.1 ng·h/mL, the “Cmax Mean” value worked out at 2.84 ng/mL, the “MRT last Mean” value amounted to 14.0 h and the “Tmax Median” value was 12.0 h.
Turning to `COCCOCCOCCOCCOCCOCCOC(=O)NC(C(=O)NC(Cc1ccccc1)C(CN(Cc1ccc(-c2ccccn2)cc1)NC(=O)C(NC(=O)OC)C(C)(C)C)OCOC)C(C)(C)C` (centres unmarked) [mPEG6-Atazanavir-methyl methyl ether, mPEG6-Atazanavir Methyl Methyl Ether], in data set [1], the MRTlast stood at 5.12 ± 1.74 h and the “t½(z)” value stood at 11.2 ± 7.72 h. The “Cmin(24 hr)” value in data set [1] (24 hr) was 3.47 ± 2.81 ng/mL. Moreover, in data set [1] (mean ± SD), the AUCall was 1140 ± 312 ng·h/mL and the Cmax came out at 222 ± 73 ng/mL. Further, in data set [2] (setting [5]), the “AUCall Mean” value turned out to be 55.8 ng·h/mL, the “Cmax Mean” value was determined as 11.3 ng/mL, the “MRT last Mean” value turned out to be 3.11 h and the “Tmax Median” value amounted to 1.50 h.
For `COCCOCCOCCOCCOCCOC(=O)NC(C(=O)NC(Cc1ccccc1)C(CN(Cc1ccc(-c2ccccn2)cc1)NC(=O)C(NC(=O)OC)C(C)(C)C)OC(=O)COCCOC(=O)C(Cc1ccccc1)NC(=O)C(N)Cc1ccccc1)C(C)(C)C.Cl` (stereo not drawn) [CME Phe-Phe-mPEG5-Atazanavir HCl, mPEG5-atazanavir-ethoxy-CME-Phe-Phe], the MRTlast in data set [1] turned out to be 1.26 h. The “Cmin(24 hr)” value in data set [1] (24 hr) is reported as “BLQ”. Moreover, in data set [1] (mean ± SD), the AUCall was found to be 1.22 ng·h/mL and the maximum concentration (Cmax) is listed as 2.36 ng/mL. For the same molecule, in data set [2] (setting [4]), the “AUCall Mean” value is 299 ng·h/mL, the “MRT last Mean” value stood at 23.9 h and the “Tmax Median” value was 24.0 h.
On to `COCCOCCOCCOCCOCCOCCOC(=O)NC(C(=O)NC(Cc1ccccc1)C(CN(Cc1ccc(-c2ccccn2)cc1)NC(=O)C(NC(=O)OC)C(C)(C)C)OC(=O)COCCOC(=O)C(N)CC(C)C)C(C)(C)C.Cl` (centres unmarked) [mPEG6-Atazanavir-CME-Leucine HCl, mPEG6-Atazanavir-CME-Leucine], for which the MRTlast in data set [1] is 2.24 ± 2.58 h. In data set [1] (mean ± SD), the AUCall came to 2.56 ± 2.89 ng·h/mL and the maximum concentration (Cmax) is 0.851 ± 0.730 ng/mL. For the same molecule, in data set [2] (setting [5]), the “AUCall Mean” value worked out at 287 ng·h/mL, the “Cmax Mean” value is reported as 8.65 ng/mL, the “MRT last Mean” value turned out to be 21.8 h and the “Tmax Median” value came to 1.50 h.
On to `CCOC(=O)O[C@@H](CN(Cc1ccc(-c2ccccn2)cc1)NC(=O)[C@@H](NC(=O)OC)C(C)(C)C)[C@H](Cc1ccccc1)NC(=O)[C@@H](NC(=O)OCCOCCOCCOCCOCCOC)C(C)(C)C.Cl` [mPEG5-Atazanavir - Ethyl Carbonate HCl, mPEG5-Atazanavir Ethyl Carbonate], for which, in data set [1], the MRTlast was determined as 2.6 ± 0.514 h and the “t½(z)” value was 7.46 ± 4.14 h. The “Cmin(24 hr)” value in data set [1] (24 hr) was 2.19 ± 0.700 ng/mL. Further, in data set [1] (mean ± SD), the AUCall worked out at 2250 ± 389 ng·h/mL and the Cmax was determined as 740 ± 253 ng/mL. In data set [2] (setting [4]), the “C24 Mean” value was 2.76, the “AUCall Mean” value turned out to be 93.2 ng·h/mL, the “Cmax Mean” value came out at 16.7 ng/mL and the “MRT last Mean” value came out at 8.51 h. Moreover, the “Tmax Median” value in data set [2] (setting [4]) was found to be 2.00 h.

The values above are taken from patent publication US20120108501A1, “Protease Inhibitors” (priority 2009, published 2012).
